Assay results: US7420029B2, “Tissue-specific transporter inhibitor” (Japan Science and Technology Agency, priority 2001, dated 2008)

How the values were obtained:
[1] = target: T1, hPEPT 1 (Homo sapiens, UniProt P46059); test: Inhibitory effect on [^3H] Gly-Sar uptake by HeLa-hPEPT 1 cells; type: cell-based; conditions: for [^3H] Gly-Sar uptake % of control: HeLa-hPEPT 1, pH 6.0, 2 min
T1 construct: expressed in transfected cells; mock = HeLa-pcDNA 3
T1 sequence (P46059 1-708): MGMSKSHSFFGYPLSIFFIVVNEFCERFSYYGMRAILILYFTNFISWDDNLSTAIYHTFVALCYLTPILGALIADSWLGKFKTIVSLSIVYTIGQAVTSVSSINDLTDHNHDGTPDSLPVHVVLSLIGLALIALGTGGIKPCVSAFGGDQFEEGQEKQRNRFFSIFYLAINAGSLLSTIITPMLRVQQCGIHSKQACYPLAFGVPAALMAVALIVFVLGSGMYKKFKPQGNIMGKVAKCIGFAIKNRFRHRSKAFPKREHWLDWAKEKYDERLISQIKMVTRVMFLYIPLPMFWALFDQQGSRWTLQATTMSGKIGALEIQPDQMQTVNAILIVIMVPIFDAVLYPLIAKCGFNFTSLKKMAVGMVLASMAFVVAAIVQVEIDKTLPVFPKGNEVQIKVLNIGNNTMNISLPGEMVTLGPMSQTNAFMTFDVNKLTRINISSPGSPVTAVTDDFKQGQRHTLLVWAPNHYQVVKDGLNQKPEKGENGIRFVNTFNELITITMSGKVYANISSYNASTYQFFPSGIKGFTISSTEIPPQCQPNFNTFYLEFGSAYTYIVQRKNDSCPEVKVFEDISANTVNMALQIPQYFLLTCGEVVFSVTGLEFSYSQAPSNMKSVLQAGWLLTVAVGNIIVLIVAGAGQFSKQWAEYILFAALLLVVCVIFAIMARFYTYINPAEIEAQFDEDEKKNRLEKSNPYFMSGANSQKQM
Method: In order to examine the recognition property of VK-PRX and its component, VK-α-CD, both obtained in Example 4, to PEPT 1, the inihibitory effect to the uptake of [^3H] Gly-Sar by using HeLa cells stably expressing hPEPT 1 (HeLa-hPEPT 1) was examined. HeLa-hPEPT 1 cells or HeLa-pcDNA (Mock) cells prepared by the method described previously (Int. J. Cancer. 88, 274-80, 2000) were placed in a multidish (Nunc) at 10^6 cells/well and cultured in an incubator (Hirasawa) at 37° C. and 5% CO2 for four days. As a broth, DMEM (Dulbecco's modified Eagle's medium; Gibco Laboratories) containing 10% FCS (Gibco Laboratories), 2 mM L-glutamine, and 1 mg/ml G418 was used. After culture, the broth was aspirated and each cell was washed three times with 1 ml of Hanks' balanced salt solution (HBSS; 0.952 mM CaCl2, 5.36 mM KCl, 0.441 mM KH2PO4, 0.812 mM MgSO4, 136.7 mM NaCl, 0.385 mM Na2HPO4, 25 mM D-glucose, 10 mM MES: pH 6.0) at 37° C., then preincubated for five minutes. Subsequently, 250 μl of HBSS containing each inhibitor with the concentration shown in FIG. 4 and Table 8, and [^3H(G)] Gly-Sar (476 nM) was added and an uptake reaction was initiated at 37° C. The inhibitors, VK-PRX (No. 1˜6), were prepared such that the highest concentration of dissolved VK-PRX would be 500 μM or lower, and were filtrated through a filter, and then used for the uptake reaction. At the beginning of the reaction, the reaction solution was taken from each dish and placed into […]. Then, 4 ml of liquid scintillation cocktail (Clear-sol I, Nacalai tesque) was added to the solution, and radioactivity in the reaction solution was measured by a liquid scintillation counter (LSC-5100, Aloka Co. Ltd.). Two minutes after the beginning of the reaction, the reaction solution in each dish was removed by aspiration, and the reaction was stopped by washing the cells three times with 1 ml of ice-cooled HBSS (HEPES: pH 7.4). Subsequently, 250 μl of 5 N NaOH was added to each dish to solubilize the cells (for two hours or longer), and 250 μl of 5 N HCl was added for neutralization, then the whole amount was poured into mini vial, and 4 ml of liquid scintillation cocktail (Clear-sol I, Nacalai tesque) was added, and radioactivity taken in the cells was measured.
Further, in order to measure the amount of cellular proteins after the culture mentioned above, the cultured cells were solubilized, Bio-Rad Protein Assay reagent (Bio-Rad Co.) was added, and the absorbance at 595 nm was measured. As a standard, BSA (bovine serum albumin) was used. Based on the results, the uptake amount of [^3H] Gly-Sar into the cells [cell/medium ratio (μl/mg·protein)] was calculated according to the formula (3). The value of the control in FIG. 4 is the result of the uptake reaction conducted in the absence of the inhibitor. […] It has been shown that the uptake of [^3H]

[2] = target: T2, PEPT 1 (Rattus norvegicus, UniProt P51574); conditions: in vivo, po
T2 sequence (P51574 1-710): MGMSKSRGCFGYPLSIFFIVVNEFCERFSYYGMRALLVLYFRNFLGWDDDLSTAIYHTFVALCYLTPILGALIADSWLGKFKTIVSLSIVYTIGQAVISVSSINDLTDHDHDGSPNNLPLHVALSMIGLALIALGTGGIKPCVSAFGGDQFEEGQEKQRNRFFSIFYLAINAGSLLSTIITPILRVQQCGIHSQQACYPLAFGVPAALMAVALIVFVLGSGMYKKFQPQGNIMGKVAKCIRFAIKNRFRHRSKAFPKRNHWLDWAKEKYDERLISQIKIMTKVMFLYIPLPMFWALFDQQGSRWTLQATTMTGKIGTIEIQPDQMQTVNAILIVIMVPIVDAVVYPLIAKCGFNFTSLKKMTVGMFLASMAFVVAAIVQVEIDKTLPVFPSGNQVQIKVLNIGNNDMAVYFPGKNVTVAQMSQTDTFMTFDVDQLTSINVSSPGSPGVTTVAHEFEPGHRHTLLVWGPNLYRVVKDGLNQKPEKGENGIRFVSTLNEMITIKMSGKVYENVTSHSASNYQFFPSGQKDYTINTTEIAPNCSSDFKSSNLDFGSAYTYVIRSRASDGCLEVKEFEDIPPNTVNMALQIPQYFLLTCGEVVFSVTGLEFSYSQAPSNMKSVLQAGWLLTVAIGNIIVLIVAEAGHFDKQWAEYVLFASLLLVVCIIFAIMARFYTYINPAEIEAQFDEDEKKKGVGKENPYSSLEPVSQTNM
Method: (§1) At the column temperature 35° C., 7% of acetonitrile (containing 0.1 M of acetic acid buffer (pH 3.0) and 0.01 M of 1-pentasulfonic acid sodium) was used as a mobile phase for separating elution at flow rate 0.9 ml/min. The detection was conducted at wavelength 240 nm, and CDX concentration in the plasma was determined.
(§2) In the formula, C, F, D, ka, ke, Vd and t represent CDX concentration in the plasma, absorptance, dosage, absorption rate constant, elimination rate constant, distribution volume, and time interval between the drug administration and blood collection, respectively.
(§3) In the formula, CL represents total clearance, Dose represents the dose of the drug, respectively.
(§4) With regard to 2.5 mg/kg CDX and 45 mg/kg CEX (▾), CEX was orally administered to the rats 30 minutes before the administration of CDX. Each pharmacokinetic parameter of the above-mentioned rats was calculated based on the change in the CDX concentration in the blood, with the formula (4), the formula (6), the formula (7), and the formula (8), and evaluated. Values shown in the figure and the table are the mean±S.E.M. of three to four independent experiments.
(§5) Then each pharmacokinetic parameter was calculated based on the change in the CDX concentration in the blood, with the formula (4), the formula (6), the formula (7), and the formula (8), and evaluated. […] Values shown in the figures are the mean±S.E.M. of two to four independent experiments, and values shown in the tables are the mean±S.E.M. of three independent experiments.
(§6) Values shown in the figure and the table are the mean±S.E.M. of two to four independent experiments.
(§7) VK-PRK was orally administered 30 minutes before CDX administration. […] Values shown in FIG. 10, FIG. 11 and Table 14 are the mean±S.E.M. of four independent experiments, and values shown in Table 13 are the mean±S.E.M. of three independent experiments.
(§8) Values shown in the figure are the mean±S.E.M. of three independent experiments, and values shown in the table are the mean±S.E.M. of four independent experiments.

[3] = target: T2, PEPT 1; test: in vivo; conditions: male, Sprague-Dawley, po; for Tmax: Tmax of CDX
Method: as §1, §2, §3, §4, §5, §6, §7, §8

[4] = CDX plasma pharmacokinetics after instant intravenous injection to rats with or without oral VK-PRX; conditions: male, Sprague-Dawley, rat
Method: as §1
In the formula, α, β and V1 represent gradient of distribution phase, gradient of elimination phase, and distribution volume of central compartment, respectively.
as §3

[5] = target: T1, hPEPT 1; test: Effect of preincubation with inhibitor on [^3H] Gly-Sar uptake by HeLa-hPEPT 1 cells; type: cell-based; conditions: FIG. 5
Method: Gly-Sar uptake was examined by using HeLa cells stably expressing hPEPT 1 (HeLa-hPEPT 1). In the presence or absence of each inhibitor with concentrations shown in FIG. 5, preincubation was conducted for 30 minutes (open columns), and after the reaction solution was removed, the inhibitory effect on [^3H] Gly-Sar uptake was measured in a manner similar to that of Example 5 except that the uptake reaction was conducted in HBSS containing the same concentration of the inhibitor and [^3H] Gly-Sar (476 nM) (closed columns). In the figure, “Mock” indicates the uptake by HeLa-pcDNA 3 cells. […] Gly-Sar.

CC(C)[C@H](N)C(=O)N[C@@H](CCCCN)C(=O)O [Val-Lys, valyl-lysine]
[^3H] Gly-Sar uptake % of control ([1]; inhibitor 3 mM): 21.13 ± 1.80 % of control

NCC(=O)O [Gly]
[^3H] Gly-Sar uptake % of control ([1]; inhibitor 10 mM): 97.71 ± 7.10 % of control

CC1=C(C(=O)O)N2C(=O)[C@@H](NC(=O)[C@H](N)c3ccc(O)cc3)[C@H]2SC1 [Cefadroxil, cefadroxil]
[^3H] Gly-Sar uptake % of control ([1]; inhibitor 10 mM): 27.69 ± 1.44 % of control
dose dependence of AUC0−∞ and Cmax of CDX (in words) [2]: saturation phenomenon
AUC0-∞ of CDX ([2]; male, Sprague-Dawley, 5 mg/kg): 272 ± 9.27 µg·min/mL
ke (elimination rate constant) of CDX ([2]; male, Sprague-Dawley, 5 mg/kg): 0.54 ± 0.06 h⁻¹
AUC(0-inf) ([3]; 5 mg/kg, AUC0-∞ of CDX): 2700 ng·h/mL
Tmax ([3]; 5 mg/kg): 1.09 ± 0.08 h
k el ([3]; 5 mg/kg, ke (elimination rate constant) of CDX): 8.61e-05 s⁻¹
Tmax ([3]; […]): 0.95 h
Vd [4]: 0.162 ± 0.00899 L
clearance [4]: 11 ± 0.41 mL/min

Gly-Sar
[^3H] Gly-Sar uptake % of control ([1]; inhibitor 10 mM): 12.93 ± 2.45 % of control

OC[C@H]1O[C@@H]2O[C@H]3[C@H](O)[C@@H](O)[C@@H](O[C@H]4[C@H](O)[C@@H](O)[C@@H](O[C@H]5[C@H](O)[C@@H](O)[C@@H](O[C@H]6[C@H](O)[C@@H](O)[C@@H](O[C@H]7[C@H](O)[C@@H](O)[C@@H](O[C@H]1[C@H](O)[C@H]2O)O[C@@H]7CO)O[C@@H]6CO)O[C@@H]5CO)O[C@@H]4CO)O[C@@H]3CO [α-CD, α-cyclodextrin]
Inhibitory effect on [^3H] Gly-Sar uptake (in words) ([1]; HeLa-hPEPT 1, FIG. 4 and Table 8): significant inhibitory effect was not observed
[^3H] Gly-Sar uptake % of control ([1]; inhibitor 3 mM): 125.87 ± 23.34 % of control
Inhibitory effect on [^3H] Gly-Sar uptake (in words) [5]: no inhibitory effect

CC1=C(C(=O)O)N2C(=O)C(NC(=O)C(N)c3ccccc3)C2SC1 (centres unmarked) [Cephalexin, cephalexin]
[^3H] Gly-Sar uptake % of control ([1]; inhibitor 10 mM): 70.12 ± 1.45 % of control
